# Reference: patent publication US6150357A, “Potassium channel agonists” (Merck & Co., Inc., priority 1999, dated 2000)
# Entries after “also recorded” stand apart in the source; their conditions may differ. Read-outs that look alike come from different tables or passages of the source.
# Columns and labels:
# Assay type in all cases: cell-based
# [1] = test system: guinea pig isolated ventricular myocytes; experiment: Action potential studies in guinea pig isolated ventricular myocytes
# Description: Isolation of guinea pig ventricular myocytes. Guinea pig ventricular myocytes were isolated as described (Salata J J, Jurkiewicz N K, Wallace A A, Stupienski R F III, Guinosso P J Jr and Lynch J J Jr. (1995). Cardiac electrophysiologic actions of the histamine H1 -receptor antagonists astemizole and terfenadine compared with chlorpheniramine and pyrilamine. Circ Res 76: 110-119.). After isolation, the cells were stored in HEPES-buffered saline (HBS) containing (mM): 132 NaCl, 4 KCl, 1.8 CaCl2, 1.2 MgCl2, 10 HEPES (formal name N-2-Hydoxyethylpiperazine-N-2-ethanesulfonic acid), 10 glucose, pH=7.2, at 24-26° C. until studied, usually within 8 hours after isolation.
# Action potential studies. Transmembrane potentials were recorded using conventional microelectrodes filled with 3 M KCl (tip resistances 30-50 M.OMEGA.) using an Axoclamp 2B amplifier (Axon Instruments; Foster City, Calif.) as described (Fermini B, Jurkiewicz N K, Jow B, Guinosso P J Jr, Baskin E P, Lynch J J Jr and Salata J J. (1995). Use-dependent effects of the Class III antiarrhythmic agent NE-10064 (azimilide) on cardiac repolarization: Block of delayed rectifier potassium and L-type calcium currents. J Cardiovasc Pharmacol 26: 259-271.). Cells were superfused with HBS maintained at 37° C. at a rate of 2 ml/min. APs were evoked with brief current pulses (1 ms, 1.2 times threshold) delivered at a frequency of 1 Hz through the recording electrode using an active bridge circuit. Only cells showing normal AP configurations and resting membrane potentials equal to or more negative than -85 mV were used in this study. APs were studied after a ≥5 min control period, and after ≥5 min of superfusion with each concentration of drug. After reaching a steady state effect under each condition, 20 individual APs were sampled and digitally averaged. The amplitude at 50 ms (APA50 ms) and duration at 90% repolarization (APD90) were measured from the digitally averaged records. Concentration-response relationships were determined by measuring APs or currents in each cell under control conditions and during superfusion with successively increasing concentrations of a given drug.
# (§1) Solutions. Compounds were dissolved in dimethyl sulfoxide (DMSO) at a stock concentration of 1 or 10 mM and diluted directly into test solutions. Serial dilutions were used to achieve the final test concentrations. DMSO at the concentrations used had no significant effect on any of the parameters measured in these studies. Nisoldipine was prepared as a 4 mM stock solution in DMSO and diluted as needed.
# (§2) Statistics. Data are expressed as mean ± SEM (N=number of cells). Concentration-dependent changes in AP parameters and individual ionic currents were assessed by repeated-measures analysis of variance (ANOVA). Post-Hoc comparison of the treatment to the control means were made with Dunnett's t-test to determine significant changes between the control and test group means. Statistical comparisons for the time constants of IKs activation and deactivation were made using a paired t-test. A one-tailed probability (p)<0.05 was considered significant.
# [2] = target: T1, slowly activating cardiac delayed rectifier potassium current (IKs) (Cavia porcellus, UniProt O70344); experiment: Whole-cell voltage-clamp of IKs in guinea pig ventricular myocytes; conditions: for V1/2 of IKs activation (isochronal, 7.5 s pulses): control 19.2±1.6 mV
# T1 construct: Guinea pig ventricular myocytes were isolated as described; endogenous in cells; host or cells: isolated guinea pig ventricular myocytes
# Description: (§3) Isolation of guinea pig ventricular myocytes.
# (§4) Voltage-clamp of guinea pig ventricular myocytes. […] Pipettes were made from square bore (1.0 mm, o.d.) borosilicate capillary tubing (Glass Co. of America, Bargaintown, N. J.). […] (average 5.5±0.3 M.OMEGA.). Series resistance was compensated 40-70%. Currents were low-pass filtered (-3 dB at 0.2 kHz) before digitization at 1 kHz. […] Cells were voltage clamped at a holding potential (Vh) of -50 mV to inactivate INa. Time-dependent IKs amplitude was measured as the difference from the initial instantaneous current, following the settling of the capacity transient, to the final current level at the end of a depolarizing pulse. Tail current amplitude, IKtail, was measured as the difference from the holding current level to the peak tail current amplitude upon return to Vh. IKtail was normalized to the maximum measured amplitude (IKtail-max) following 7.5 s pulses. Averaged data was fit to a Boltzmann distribution of the form: IKtail /IKtail-max =1/(1+exp[(V1/2 -Vt)/k]) with a nonlinear least squares fitting routine (Origin, Microcal Software, Northampton, Mass.) to estimate the half-point (V1/2) and slope factor (k) for this relationship. The time courses of IKs activation and deactivation were fit with a double exponential relationship of the form: It =A0 +A1 e^-t/t 1+A2 e^-t/t 2 using a Chebeshev non-iterative fitting technique (pCLAMP, Axon Instruments, Foster City, Calif.).
# (§5) Solutions. Compounds were dissolved in dimethyl sulfoxide (DMSO) at a stock concentration of 1 or 10 mM and diluted directly into test solutions. Serial dilutions were used to achieve the final test concentrations. […] Nisoldipine was prepared as a 4 mM stock solution in DMSO and diluted as needed.
# as §2
# [3] = test system: slowly activating cardiac delayed rectifier potassium current (IKs); experiment: as above; conditions: 10 nM Iso alone; 0.5 s pulses
# Description: as §3, §4, §5, §2
# human KvLQT1 channels = target: T2, human KvLQT1 channels (Homo sapiens, UniProt P51787); experiment: Two-microelectrode voltage clamp of cloned KvLQT1 channels expressed in Xenopus oocytes; conditions: 1 μM
# T2 construct: homotetramer
# Experimental: cRNA injection and voltage-clamp of oocytes. The isolation and maintenance of Xenopus oocytes, in vitro transcription of KvLQT1 complementary RNA (cRNA) and its injection into oocytes were performed as described previously (Sanguinetti M C, Curran M E, Zou A, Shen J, Spector P S, Atkinson D L and Keating M T. (1996b). Coassembly of KvLQT1 and minK (IsK) proteins form cardiac IKs potassium channel. Nature 384: 80-83.; Sanguinetti M C, Jiang C, Curran M E and Keating M T. (1995). A mechanistic link between an inherited and an acquired cardiac arrhythmia: HERG encodes the IKr potassium channel. Cell 81: 299-307.). Stage V and VI oocytes were injected with 11.5 ng of KvLQT1 cRNA (46 nL of a 250 ng/μL solution) Currents were recorded 2 to 4 days later using standard two-microelectrode voltage clamp techniques and a Dagan TEV-200 amplifier. Oocytes were bathed at room temperature (22-25° C.) in a solution containing (mM): 94 NaCl, 2 KCl, 2 MgCl2, 0.1 CaCl2, 5 HEPES; pH 7.6.
# as §1
# [4] = 1 μM, read-out: Agonist Effect - % Increase in IKs, Vt +50 mV
# [5] = 10 μM, read-out: Agonist Effect - % Increase in IKs, Vt +50 mV
# [6] = 10 μM, read-out: Agonist Effect - % Increase in IKs, Vt -10 mV
# T2 sequence (P51787 whole entry): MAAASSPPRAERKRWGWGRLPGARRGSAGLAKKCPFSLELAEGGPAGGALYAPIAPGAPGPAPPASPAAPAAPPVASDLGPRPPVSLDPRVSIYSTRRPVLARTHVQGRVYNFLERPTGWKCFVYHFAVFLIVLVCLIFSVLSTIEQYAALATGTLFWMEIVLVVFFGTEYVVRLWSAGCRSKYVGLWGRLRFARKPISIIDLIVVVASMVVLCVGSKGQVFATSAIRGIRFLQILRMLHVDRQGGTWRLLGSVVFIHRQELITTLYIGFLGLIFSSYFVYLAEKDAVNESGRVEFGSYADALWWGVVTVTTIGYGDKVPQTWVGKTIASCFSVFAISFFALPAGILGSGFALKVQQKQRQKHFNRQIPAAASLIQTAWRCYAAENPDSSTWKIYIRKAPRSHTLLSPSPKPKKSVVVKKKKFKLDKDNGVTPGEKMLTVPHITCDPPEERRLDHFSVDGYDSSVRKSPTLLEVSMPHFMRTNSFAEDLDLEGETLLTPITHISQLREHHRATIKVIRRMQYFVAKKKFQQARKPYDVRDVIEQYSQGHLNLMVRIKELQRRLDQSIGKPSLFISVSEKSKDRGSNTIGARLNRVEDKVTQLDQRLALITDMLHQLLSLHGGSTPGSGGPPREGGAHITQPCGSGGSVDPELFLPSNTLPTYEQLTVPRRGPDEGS
smiles,measurement,setting,value
"CC(C)(C)NC[C@H](O)COc1nsnc1N1CCOCC1 [timolol, reference compound]",effect on AP configuration,[1]; 100 nM timolol,did not alter AP configuration
same,effect on the effects of 30 nM Iso on the action potential,[1]; 100 nM timolol,prevented the effects of 30 nM Iso
"O=C1Nc2ccccc2C(c2ccccc2F)=N[C@@H]1Cc1c[nH]c2ccccc12 [R-L4, (3-R)-1,3-dihydro-5-(2-fluorophenyl)-3-(1H-indol-3-ylmethyl)-2H-1,4-benzodiazepin-2-one]",activation at 1 µM,[2]; [4],44 ± 9%
same,activation at 1 µM,"[2]; 1 μM, read-out: Agonist Effect - % Increase in IKs, Vt -10 mV",27 ± 7%
same,activation at 10 µM,[2]; [5],114 ± 13%
same,activation at 10 µM,[2]; [6],153 ± 37%
"Cc1cccc(NC(=O)N2CCC3(CC2)CC(=O)c2ccccc2O3)c1 [L8, N-(3-tolyl)-1'-(carboxamido)-spiro[2H-1-benzopyran-2,4'-piperidin]-4(3H)-one]","Agonist Effect - % Increase in IKs, Vt -10 mV",[2]; 10 μM,no change
same,activation at 10 µM,[2]; [5],65 ± 17%
CN1C(=O)[C@H](Cc2c[nH]c3ccccc23)N=C(c2ccccc2F)c2ccccc21 [S-L3],inhibition at 1 µM,"[2]; 1 μM, end of a 1-s test pulse to +50 mV, read-out: block of IKs",14.8 ± 4.3%
same,inhibition at 10 µM,"[2]; 10 μM, end of a 1-s test pulse to +50 mV, read-out: block of IKs",68.8 ± 3.4%
same,effect on IKs,"[2]; 1 to 10 μM, test potentials -10 to +50 mV",blocked IKs at all concentrations
"Cc1cccc(N2C(=O)NC3(N=C(c4ccccc4)c4ccccc4N(C)C3=O)C2=O)c1 (stereo not drawn) [L6, 1-methyl-5-phenyl-1'-(3-tolyl)-spiro[3H-1,4-benzodiazepine-3,4'-imidazolidine]-2(1H),2',5'-trione]",activation at 10 µM,[2]; [5],31 ± 9%
"CC(C)NCC(O)c1ccc(O)c(O)c1 (stereo not drawn) [Iso, isoproterenol, reference compound]",decrease in APD90,[1]; 30 nM Iso alone,12.9±2.9%
same,activation at 0.03 µM,"[1]; Cavia porcellus, Ventricular myocyte, 30 nM Iso alone, read-out: increase in APA50ms",6.6 ± 2.9%
same,increase in IKs,[3],1.75 fold
"CN1C(=O)[C@@H](Cc2c[nH]c3ccccc23)N=C(c2ccccc2F)c2ccccc21 [R-L3, (3-R)-1,3-dihydro-5-(2-fluorophenyl)-3-(1H-indol-3-ylmethyl)-1-methyl-2H-1,4-benzodiazepin-2-one]",decrease in APD90,[1]; 1 μM R-L3 in the continued presence of 100 nM timolol,14.6±2.2%
same,decrease in APD90,[1]; 1 μM R-L3 in the presence of 30 nM Iso,26.9±1.4%
same,decrease in APD90,"[1]; 1 μM, stimulation at 1 Hz",14.2±1.6%
same,decrease in APD90,"[1]; 10 μM, stimulation at 1 Hz",13.8±4.0%
same,effect on APD,"[1]; 0.1-1.0 μM, 1 Hz",concentration-dependent shortening of APD
same,concentration at which shortening of APD was maximal,[1]; 1 Hz,1 µM
same,net effect on rate of KvLQT1 activation,human KvLQT1 channels,slow the rate of KvLQT1 activation
same,shift in the voltage dependence of KvLQT1 activation,human KvLQT1 channels,-10 mV
same,effect on KvLQT1 current,human KvLQT1 channels; 2 s pulses to -70 to +60 mV,increased KvLQT1
same,slope factor (k) of KvLQT1 activation,human KvLQT1 channels; control 11 mV,13 mV
same,V1/2 of KvLQT1 activation,human KvLQT1 channels; control -28 mV,-40 mV
same,effect on rate of KvLQT1 deactivation,human KvLQT1 channels; voltages negative to -40 mV,slowed the rate of KvLQT1 deactivation
same,fold induction at 0.03 µM,"[2]; 30 nM, 3 s depolarizations to Vt -10 mV from Vh -50 mV, read-out: IKs increased by a factor",17 ± 5
same,"V1/2 of IKs activation (isochronal, 7.5 s pulses)",[2]; 0.1 μM,3.0±0.8 mV
same,activation at 0.1 µM,"[2]; 0.1 μM, read-out: Agonist Effect - % Increase in IKs, Vt +50 mV",25 ± 6%
same,activation at 0.1 µM,"[2]; 0.1 μM, read-out: Agonist Effect - % Increase in IKs, Vt -10 mV",431 ± 123%
same,fast time constants of IKs activation,[2]; 1 μM,"slightly, but not significantly, faster"
same,maximally activated IKs,"[2]; 1 μM, Vt +60 mV, control 896±196 pA, not significantly increased",953±183 pA
same,"V1/2 of IKs activation (isochronal, 7.5 s pulses)",[2]; 1 μM,-4.9±3.4 mV
same,shift of V1/2 of IKs activation,"[2]; 1 μM, following pretreatment with 100 nM timolol",-19 mV
same,activation at 1 µM,[2]; [4],40 ± 12%
same,effect on time-dependent IKs at the end of 7.5 s pulses,"[2]; 10 μM, Vh -50 mV","increased time-dependent IKs at the end of 7.5 s pulses to potentials <+10 mV, but decreased IKs at more positive potentials"
same,effect on slope factor k of IKs activation,"[2]; 0.1 and 1 μM, control k 11.0±1.2 mV",not significantly changed; also recorded: had no effect on k
same,fast and slow time constants of IKs deactivation,[2]; -60 to -10 mV following 3 s pre-pulse to +30 mV,significantly increased
same,lowest concentration enhancing IKs,[2]; Vt -10 mV,30 nM
same,concentration of maximal effect on IKs,"[2]; Vt -10 mV, 3 s pulses",1 µM
"O=C1Nc2ccc(Cl)cc2C(c2ccccc2)=N[C@@H]1Cc1c[nH]c2ccccc12 [R-L5, (3-R)-7-chloro-1,3-dihydro-5-phenyl-3-(1H-indol-3-ylmethyl)-2H-1,4-benzodiazepin-2-one]",activation at 10 µM,[2]; [5],22 ± 6%
same,activation at 10 µM,[2]; [6],22 ± 10%
"O=C1CC2(CCN(C(=O)Nc3ccccc3)CC2)Oc2ccccc21 [L7, N-phenyl-1'-(carboxamido)-spiro[2H-1-benzopyran-2,4'-piperidin]-4(3H)-one]","Agonist Effect - % Increase in IKs, Vt -10 mV",[2]; 1 μM,no change
same,activation at 1 µM,[2]; [4],111 ± 28%
